Test results: patent publication US20040192734A1, “4-(3-aminomethylphenyl)piperidin-1-yl]-[5-(2-fluorophenylethynyl)furan-2-yl]-methanone as an inhibitor of mast cell tryptase” (AVENTIS PHARMACEUTICALS INC., priority 2002, published 2004)
Several values for one entry are separate records, joined by “and”; a condition that tells them apart may be missing. Equal values may be shown once. Where a name gives a salt, the structure may show the parent alone. Read-outs that look alike come from different tables or passages of the source.

Experiments:
[1] = biological target: T1, recombinant human β tryptase (Homo sapiens, UniProt Q15661); test: β-Tryptase Inhibition (chromogenic assay); format: biochemical; conditions: for Ki: chromogenic assay, substrate S2366 0.5 mM, room temperature, Ki calculated from IC50
T1 construct: made in house; host or cells: yeast cells
T1 sequence (Q15661 31-275): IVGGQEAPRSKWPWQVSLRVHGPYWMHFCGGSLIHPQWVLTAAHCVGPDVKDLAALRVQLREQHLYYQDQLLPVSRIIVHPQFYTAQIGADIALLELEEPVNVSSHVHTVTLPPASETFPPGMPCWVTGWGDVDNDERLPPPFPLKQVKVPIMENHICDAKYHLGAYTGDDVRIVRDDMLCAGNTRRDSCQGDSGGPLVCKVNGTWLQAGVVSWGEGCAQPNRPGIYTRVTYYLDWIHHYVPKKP
Text: Tr0yptase inhibition activity is confirmed using either isolated human lung tryptase or recombinant human β tryptase expressed in yeast cells. Essentially equivalent results are obtained using isolated native enzyme or the expressed enzyme. The assay procedure employs a 96 well microplate (Costar 3590) using L-pyroglutamyl-L-prolyl-L-arginine-para-nitroanilide (S2366: Quadratech) as substrate (essentially as described by McEuen et. al. Biochem Pharm, 1996, 52, pages 331-340). Assays are performed at room temperature using 0.5 mM substrate (2×Km) and the microplate is read on a microplate reader (Beckman Biomek Plate reader) at 405 nm wavelength. The inhibition constants (Ki) for the compound of the present invention and other structurally related compounds, are set forth in Table 1.
Materials and Methods for Trtase Primary Screen (Chromogenic Assay)
S2366 (Stock solutions of 2.5 mM).
Purified recombinant beta Tryptase Stocks of 310 μg/mL.
Add 60 μL of diluted substrate (final concentration of 500 μM in assay buffer) to each well
Add compound in duplicates, final concentration of 20 μM, volume 20 μL
Add enzyme at a final concentration of 50 ng/mL in a volume of 20 μL
Total volume for each well is 100 μL
Agitate briefly to mix and incubate at room temp in the dark for 30 minutes
Read absorbencies at 405 nM
Protocol (IC50 and Ki Determination)
The protocol is essentially the same as above except that the compound is added in duplicates at the following final concentrations: 0.01, 0.03, 0.1, 0.3, 1, 3, 10 uM (All dilutions carried out manually). For every assay, whether single point or IC50 determination, a standard compound is used to derive IC50 for comparison. From the IC50 value, the Ki can be calculated using the following formula:
Ki=IC50/(1+[Substrate]/Km).

[2] = tested on: Airway Hyperresponsiveness (AHR) to histamine in sensitized guinea pigs; test: Guinea Pig Model of Airway Hyperreactivity; format: in vivo; conditions: for protective effect as measured by airway resistance / protective effect as measured by lung compliance: intravenous dosing at 0.3, 1 and 3 mg/kg; for Intravenous ID50 Dynamic Lung Compliance: Cdyn40, histamine challenge; for Intravenous ID50 Dynamic Lung Compliance / Intravenous ID50 Airway Hyperresponsiveness: ovalbumin-sensitized guinea pigs; for Intravenous ID50 Airway Hyperresponsiveness: airway resistance (RL300), histamine challenge
[3] = tested on: Airway Hyperresponsiveness (AHR) to histamine in sensitized guinea pigs; test: Guinea Pig Model of Airway Hyperreactivity; format: in vivo; conditions: for protection against AHR to histamine, airway resistance: oral dosing, Structure (III) where X=H dosed at 3, 10, and 30 mg/kg; for protection against AHR to histamine, airway resistance / Oral ID50 Dynamic Lung Compliance / Oral ID50 Airway Hyperresponsiveness: 2 hours prior to ovalbumin challenge; for Oral ID50 Dynamic Lung Compliance: Cdyn40; for Oral ID50 Airway Hyperresponsiveness: airway resistance (RL300)
Protocol: Sensitization and drug treatment: Male Hartley guinea pigs (225-250g) are sensitized with ovalbumin (0.5 mL of 1% solution, i.p. and s.c.). On day 4, animals received a booster injection (i.p.) of 0.5 mL of 1% ovalbumin. On day 21, animals are orally dosed (2 ml/kg) with either vehicle (0.5% methylcellulose/0.2% Tween 80) or test compound 2 hours prior to antigen challenge. Thirty minutes before antigen challenge the animals are also injected with mepyramine (30 mg/kg, i.p.) to prevent anaphylactic collapse. Animals are then exposed for 5 minutes to an aerosol of either saline (control animals) or 1% ovalbumin using a deVilbiss Ultraneb nebulizer.
AHR measurement: Eighteen to twenty four hours after challenge, animals are anesthetized with a combination of ketamine (133 mg/kg) and xylazine (24 mg/kg) given intramuscularly, surgically prepared and then mounted in a whole body plethysmograph for lung function measurement. Animals were connected to Ugo-Basile ventilators delivering a tidal volume of 1 mL/100 g at a rate of 50 breaths/minute via a tracheal cannula. The jugular vein is also cannulated for histamine challenge. A water filled oesophageal cannula is placed such that transpulmonary pressure could be recorded. Transpulmonary pressure is measured as the difference between the tracheal and esophageal cannulas using a differential pressure transducer. The volume, airflow, and transpulmonary pressure signals are monitored using a pulmonary analysis system (Buxco XA software) and used to calculate pulmonary resistance (cm H2O/mL/s) and dynamic compliance (mL/cm H2O). Airway resistance and dynamic compliance were computed on a breath by breath basis. Histamine is administered intravenously and reactivity to increasing concentrations (0.1-10 μg/kg) assessed. ID50's are estimated from the RL300 (histamine concentration required to 300% increase in lung resistance) and Cdyn40 (histamine concentration required to induce a 40% decrease in dynamic lung compliance) parameters deduced from the individual […] a histamine dose-response curves.

[4] = biological target: T1, recombinant human β tryptase; conditions: greatest β-Tryptase inhibitory potency disclosed in U.S. application Ser. No. 09/843,126; cited from earlier work
[5] = listed as compound of the present invention, trifluoroacetate

In the case of `NCc1cccc(C2CCN(C(=O)c3cccc(C#Cc4ccccc4)c3)CC2)c1.O=C(O)C(F)(F)F` [Structure (II) where X = H, [4-(3-aminomethylphenyl)piperidin-1-yl]-(3-phenylethynylphenyl)methanone trifluoroacetate], the Ki [1] is reported as 106 nM, the “protective effect as measured by airway resistance” value [2] is reported as “uniformly ineffective” and the “protective effect as measured by lung compliance” value [2] is reported as “does not show any protective effects”. For the same compound, the “Intravenous ID50 Dynamic Lung Compliance” value [2] was greater than 3.0 mg/kg and the “Intravenous ID50 Airway Hyperresponsiveness” value [2] was greater than 3.0 mg/kg.

With `NCc1cccc(C2CCN(C(=O)c3cccc(C#Cc4ccccc4F)c3)CC2)c1.O=C(O)C(F)(F)F` [Structure (II) where X=F, [4-(3-aminomethylphenyl)piperidin-1-yl]-[3-(2-fluorophenylethynyl)phenyl]methanone trifluoroacetate] the “fold increase in β-Tryptase inhibitory potency” value ([1]; Structure (II) where X=F versus Structure (II) where X=H) was 1.09 fold and the Ki [1] was 97 nM.

For `NCc1cccc(C2CCN(C(=O)c3ccc(C#Cc4ccccc4F)o3)CC2)c1` [Structure (III) where X = F, [4-(3-Aminomethylphenyl)piperidin-1-yl]-[5-(2-fluorophenylethynyl)furan-2-yl]-methanone trifluoroacetate], the Ki [1] was 7.6 to 9.7 nM and 7.6 nM and 9.7 nM, the “protection against AHR to histamine, airway resistance” value [3] was “significantly protects against AHR to histamine” and the “Oral ID50 Dynamic Lung Compliance” value [3] was 1 to 2 mg/kg. For the same compound, the “Oral ID50 Airway Hyperresponsiveness” value [3] was 1 to 2 mg/kg, the “effect on basal airway resistance” value ([3]; sensitized guinea pigs) was “no effect” and the “effect on basal dynamic lung compliance” value ([3]; sensitized guinea pigs) was “no effect”. For the same compound, the “protective effect as measured by airway resistance” value [2] was “protective at all doses”, the “protective effect as measured by lung compliance” value [2] was “protective at all doses” and the “Intravenous ID50 Dynamic Lung Compliance” value [2, 5] was less than 0.3 mg/kg. The “Intravenous ID50 Dynamic Lung Compliance” value ([2]; trifluoroacetate) was less than 0.3 mg/kg, the “Intravenous ID50 Airway Hyperresponsiveness” value [2, 5] was less than 0.3 mg/kg and the “Intravenous ID50 Airway Hyperresponsiveness” value ([2]; trifluoroacetate) was less than 0.3 mg/kg.

With `NCc1cccc(C2CCN(C(=O)c3ccc(C#Cc4ccccc4)o3)CC2)c1.O=C(O)C(F)(F)F` [Structure (III) where X = H, [4-(3-aminomethylphenyl)piperidin-1-yl]-(5-phenylethynylfuran-2-yl)methanone trifluoroacetate] the “fold increase in β-Tryptase inhibitory potency” value ([1]; Structure (III) where X=H versus Structure (II) where X=H) was 3.42 fold, the Ki [1] was 31 nM and the “effect on lung compliance” value ([3]; oral dosing at 3, 10, and 30 mg/kg) was “No effect”. The “protection against AHR to histamine, airway resistance” value [3] was “protective on airway resistance, but the effects are not statistically significant”, the “Oral ID50 Dynamic Lung Compliance” value [3] was greater than 30 mg/kg and the “Oral ID50 Airway Hyperresponsiveness” value [3] was “Protective at 3,”. For the same compound, the “protective effect as measured by airway resistance” value [2] was “reversed airway resistance at the highest dose”, the “protective effect as measured by lung compliance” value [2] was “does not show any protective effects” and the “Intravenous ID50 Dynamic Lung Compliance” value [2] was greater than 3.0 mg/kg. The “Intravenous ID50 Airway Hyperresponsiveness” value [2] was 1 to 3 mg/kg.

In the case of `NCc1cccc(C2CCN(C(=O)c3ccc(Cl)c(Cl)c3)CC2)c1` [[4-(3-Aminomethylphenyl)piperidin-1-yl]-(3,4-dichlorophenyl) methanonetrifluoroacetate], the Ki [4] is listed as 31 nM.
